Values of other authors in patent US20220015356A1, “AQUEOUS SOLUTIONS OF POORLY SOLUBLE PESTICIDES USING POLYALKYOXYLATED ALCOHOLS” (priority 2018, published 2022).

Conditions: at 20° C.

Q: With `COC(=O)N(OC)c1ccccc1COc1ccn(-c2ccc(Cl)cc2)n1` [pyraclostrobin] as the molecule, how does the water solubility read?
A: < 1.9 mg/L
